US9062071B2, “Substituted piperidines as HDM2 inhibitors” (Merck Sharp & Dohme Corp, priority 2011, dated 2015)

Molecular target: HDM2 protein (Homo sapiens, UniProt Q00987)
Assay: fluorescence polarization screening assay (FP IC50)
Format: binding
Settings: class symbols
Method: The compounds were evaluated to determine activity at the HDM2 protein by known methods such as the fluorescence polarization screening assay that measures the inhibitory concentration that achieves 50% of maximal activity (FP IC50) and the dissociation constant for inhibitor binding (FP Ki). [Zhang et al., J. Analytical Biochemistry 331: 138-146 (2004)].

Sequence of HDM2 protein (Q00987 whole entry): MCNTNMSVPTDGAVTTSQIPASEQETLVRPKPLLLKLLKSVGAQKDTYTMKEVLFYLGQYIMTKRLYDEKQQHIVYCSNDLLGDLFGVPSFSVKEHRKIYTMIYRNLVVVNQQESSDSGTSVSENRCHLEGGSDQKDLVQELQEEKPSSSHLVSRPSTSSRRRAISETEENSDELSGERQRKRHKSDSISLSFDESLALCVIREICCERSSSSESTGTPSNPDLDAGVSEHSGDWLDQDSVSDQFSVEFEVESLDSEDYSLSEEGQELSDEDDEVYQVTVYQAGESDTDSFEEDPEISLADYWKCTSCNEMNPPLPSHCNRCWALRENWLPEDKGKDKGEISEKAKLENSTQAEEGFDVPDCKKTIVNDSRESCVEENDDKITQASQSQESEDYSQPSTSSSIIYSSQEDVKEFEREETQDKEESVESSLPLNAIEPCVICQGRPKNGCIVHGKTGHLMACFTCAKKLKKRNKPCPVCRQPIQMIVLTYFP

IC50 [nM] | Compound
1 to 100 | CCC[C@H]1N(C(=O)c2ncccc2C(F)(F)F)CCC[C@@]1(Oc1csc(C(F)(F)F)c1)C(=O)N1Cc2ccc(Cl)cc2C[C@@H]1COCC(=O)O [Compound A38, {[(3R)-6-chloro-2-{[(2R,3S)-2-propyl-1-{[3-(trifluoromethyl)pyridin-2-yl]carbonyl}-3-{[5-(trifluoromethyl)thiophen-3-yl]oxy}piperidin-3-yl]carbonyl}-1,2,3,4-tetrahydroisoquinolin-3-yl]methoxy}acetic acid]
1 to 100 | CCC[C@H]1N(C(=O)c2cnccc2C(F)(F)F)CCC[C@@]1(Oc1csc(C(F)(F)F)c1)C(=O)N1CCc2ccccc2C1CC(=O)O (stereo partly drawn) [Compound A122, (2-{[(2R,3S)-2-propyl-1-{[4-(trifluoromethyl)pyridin-3-yl]carbonyl}-3-{[5-(trifluoromethyl)thiophen-3-yl]oxy}piperidin-3-yl]carbonyl}-1,2,3,4-tetrahydroisoquinolin-1-yl)acetic acid]
1 to 100 | CCC[C@H]1N(C(=O)c2ncccc2C(F)(F)F)CCC[C@@]1(Oc1csc(C(F)(F)F)c1)C(=O)N1CCc2sc(Cl)cc2C1C(=O)O (stereo partly drawn) [Compound A14, 2-chloro-5-{[(2R,3S)-2-propyl-1-{[3-(trifluoromethyl)pyridin-2-yl]carbonyl}-3-{[5-(trifluoromethyl)thiophen-3-yl]oxy}piperidin-3-yl]carbonyl}-4,5,6,7-tetrahydrothieno[3,2-c]pyridine-4-carboxylic acid]
1 to 100 | CCC[C@H]1N(C(=O)c2ncccc2C(F)(F)F)CCC[C@@]1(Oc1csc(C(F)(F)F)c1)C(=O)N1CCc2cc(Cl)ccc2C1CC(=O)N1CCC(O)CC1 (stereo partly drawn) [Compound A85, 1-[(6-chloro-2-{[(2R,3S)-2-propyl-1-{[3-(trifluoromethyl)pyridin-2-yl]carbonyl}-3-{[5-(trifluoromethyl)thiophen-3-yl]oxy}piperidin-3-yl]carbonyl}-1,2,3,4-tetrahydroisoquinolin-1-yl)acetyl]piperidin-4-ol]
1 to 100 | CCC[C@H]1N(C(=O)c2ncccc2C(F)(F)F)CCC[C@@]1(Oc1csc(C(F)(F)F)c1)C(=O)N1Cc2ccc(Cl)cc2C[C@H]1CCC(=O)O [Compound A143, 3-[(3R)-6-chloro-2-{[(2R,3S)-2-propyl-1-{[3-(trifluoromethyl)pyridin-2-yl]carbonyl}-3-{[5-(trifluoromethyl)thiophen-3-yl]oxy}piperidin-3-yl]carbonyl}-1,2,3,4-tetrahydroisoquinolin-3-yl]propanoic acid]
1 to 100 | CCC[C@H]1N(C(=O)c2ncccc2C(F)(F)F)CCC[C@@]1(Oc1csc(C(F)(F)F)c1)C(=O)N1Cc2cc(F)ccc2C[C@H]1C(=O)O [Compound A128, (3S)-7-fluoro-2-{[(2R,3S)-2-propyl-1-{[3-(trifluoromethyl)pyridin-2-yl]carbonyl}-3-{[5-(trifluoromethyl)thiophen-3-yl]oxy}piperidin-3-yl]carbonyl}-1,2,3,4-tetrahydroisoquinoline-3-carboxylic acid]
1 to 100 | CCC[C@H]1N(C(=O)c2ncccc2C(F)(F)F)CCC[C@@]1(Oc1csc(C(F)(F)F)c1)C(=O)N1CCc2cc(Cl)ccc2C1CC(C)(C)C(=O)O (stereo partly drawn) [Compound A64, 3-(6-chloro-2-{[(2R,3S)-2-propyl-1-{[3-(trifluoromethyl)pyridin-2-yl]carbonyl}-3-{[5-(trifluoromethyl)thiophen-3-yl]oxy}piperidin-3-yl]carbonyl}-1,2,3,4-tetrahydroisoquinolin-1-yl)-2,2-dimethylpropanoic acid]
1 to 100 | CCC[C@H]1N(C(=O)c2ncccc2C(F)(F)F)CCC[C@@]1(Oc1csc(C(F)(F)F)c1)C(=O)N1Cc2ccc(F)cc2C[C@H]1CCC(=O)O [Compound A127, 3-[(3R)-6-fluoro-2-{[(2R,3S)-2-propyl-1-{[3-(trifluoromethyl)pyridin-2-yl]carbonyl}-3-{[5-(trifluoromethyl)thiophen-3-yl]oxy}piperidin-3-yl]carbonyl}-1,2,3,4-tetrahydroisoquinolin-3-yl]propanoic acid]
1 to 100 | COCC1c2ccc(Cl)cc2CCN1C(=O)[C@]1(Oc2csc(C(F)(F)F)c2)CCCN(C(=O)c2ncccc2C(F)(F)F)[C@@H]1CC(=O)O (stereo partly drawn) [Compound A18, [(2R,3S)-3-{[6-chloro-1-(methoxymethyl)-3,4-dihydroisoquinolin-2(1H)-yl]carbonyl}-1-{[3-(trifluoromethyl)pyridin-2-yl]carbonyl}-3-{[5-(trifluoromethyl)thiophen-3-yl]oxy}piperidin-2-yl]acetic acid]
1 to 100 | CCC[C@H]1N(C(=O)c2ncccc2C(F)(F)F)CCC[C@@]1(Oc1csc(C(F)(F)F)c1)C(=O)N1CCc2sc(Cl)cc2C1CCC(=O)NS(C)(=O)=O (stereo partly drawn) [Compound A37, 3-(2-chloro-5-{[(2R,3S)-2-propyl-1-{[3-(trifluoromethyl)pyridin-2-yl]carbonyl}-3-{[5-(trifluoromethyl)thiophen-3-yl]oxy}piperidin-3-yl]carbonyl}-4,5,6,7-tetrahydrothieno[3,2-c]pyridin-4-yl)-N-(methylsulfonyl) propanamide]

More lines, now with the values behind:

Compound | IC50 [nM]
COCCN(CCOC)CC[C@H]1N(C(=O)c2cnccc2C(F)(F)F)CCC[C@@]1(Oc1csc(C(F)(F)F)c1)C(=O)N1CCc2cc(Cl)ccc2C1 [Compound A2, 2-[(2R,3S)-3-[(6-chloro-3,4-dihydroisoquinblin-2(1H)-yl)carbonyl]-1-{[4-(trifluoromethyl)byridin-3-yl]carbonyl}-3-{[5-(trifluoromethyl)thiophen-3-yl]oxy}piperidin-2-yl]-N,N-bis(2-methoxyethyl)ethanamine] | 1 to 100
O=C(c1ncccc1C(F)(F)F)N1CCC[C@@](Oc2csc(C(F)(F)F)c2)(C(=O)N2CCc3cc(Cl)ccc3C2)[C@H]1CCNC1CCOCC1 [Compound A112, N-{2-[(2R,3S)-3-[(6-chloro-3,4-dihydroisoquinolin-2(1H)-yl)carbonyl]-1-{[3-(trifluoromethyl)pyridin-2-yl]carbonyl}-3-{[5-(trifluoromethyl)thiophen-3-yl]oxy}piperidin-2-yl]ethyl}tetrahydro-2H-pyran-4-amine] | 1 to 100
O=C(c1ncccc1C(F)(F)F)N1CCC[C@@](Oc2csc(C(F)(F)F)c2)(C(=O)N2CCc3cc(Cl)ccc3C2)[C@H]1CCN1CCN(CC2CC2)CC1 [Compound A116, 6-chloro-2-{[(2R,3S)-2-{2-[4-(cyclopropylmethyl)piperazin-1-yl]ethyl}-1-{[3-(trifluoromethyl)pyridin-2-yl]carbonyl}-3-{[5-(trifluoromethyl)thiophen-3-yl]oxy}piperidin-3-yl]carbonyl}-1,2,3,4-tetrahydroisoquinoline] | 1 to 100
C=CC[C@H]1N(C(=O)c2ncccc2C(F)(F)F)CCC[C@@]1(Oc1csc(C(F)(F)F)c1)C(=O)N1CCc2cc(Cl)ccc2C1C(=O)O (stereo partly drawn) [Compound A113, 6-chloro-2-{[(2R,3S)-2-prop-2-en-1-yl-1-{[3-(trifluoromethyl)pyridin-2-yl]carbonyl}-3-{[5-(trifluoromethyl)thiophen-3-yl]oxy}piperidin-3-yl]carbonyl}-1,2,3,4-tetrahydroisoquinoline-1-carboxylic acid] | 1 to 100
CCC[C@H]1N(C(=O)c2ncccc2C(F)(F)F)CCC[C@@]1(Oc1csc(C(F)(F)F)c1)C(=O)N1CCc2cc(Cl)ccc2C1C1CCC(C(=O)O)C1 (stereo partly drawn) [Compound A96, 3-(6-chloro-2-{[(2R,3S)-2-propyl-1-{[3-(trifluoromethyl)pyridin-2-yl]carbonyl}-3-{[5-(trifluoromethyl)thiophen-3-yl]oxy}piperidin-3-yl]carbonyl}-1,2,3,4-tetrahydroisoquinolin-1-yl)cyclopentanecarboxylic acid] | 1 to 100
CCC[C@H]1N(C(=O)c2ncccc2C(F)(F)F)CCC[C@@]1(Oc1csc(C(F)(F)F)c1)C(=O)N1CCc2sc(C(=O)OCC)cc2C1 [Compound A9, ethyl 5-{[(2R,3S)-2-propyl-1-{[3-(trifluoromethyl)pyridin-2-yl]carbonyl}-3-{[5-(trifluoromethyl)thiophen-3-yl]oxy}piperidin-3-yl]carbonyl}-4,5,6,7-tetrahydrothieno[3,2-c]pyridine-2-carboxylate] | 101 to 20000
CCC[C@H]1N(C(=O)c2ncccc2C(F)(F)F)CCC[C@@]1(Oc1csc(C(F)(F)F)c1)C(=O)N1Cc2ccc(F)cc2C[C@@H]1C(=O)O [Compound A123, (3R)-6-fluoro-2-{[(2R,3S)-2-propyl-1-{[3-(trifluoromethyl)pyridin-2-yl]carbonyl}-3-{[5-(trifluoromethyl)thiophen-3-yl]oxy}piperidin-3-yl]carbonyl}-1,2,3,4-tetrahydroisoquinoline-3-carboxylic acid] | 1 to 100
COCC1c2ccc(Cl)cc2CCN1C(=O)[C@]1(Oc2csc(C(F)(F)F)c2)CCCN(C(=O)c2ncccc2C(F)(F)F)[C@@H]1CCNC1CCOCC1 (stereo partly drawn) [Compound A22, N-{2-[(2R,3S)-3-{[6-chloro-1-(methoxymethyl)-3,4-dihydroisoquinolin-2(1H)-yl]carbonyl}-1-{[3-(trifluoromethyl)pyridin-2-yl]carbonyl}-3-{[5-(trifluoromethyl)thiophen-3-yl]oxy}piperidin-2-yl]ethyl}tetrahydro-2H-pyran-4-amine] | 1 to 100
CCC[C@H]1N(C(=O)c2ncccc2C(F)(F)F)CCC[C@@]1(Oc1csc(C(F)(F)F)c1)C(=O)N1Cc2sccc2CC1C(=O)O (stereo partly drawn) [Compound A171, 6-{[(2R,3S)-2-propyl-1-{[3-(trifluoromethyl)pyridin-2-yl]carbonyl}-3-{[5-(trifluoromethyl)thiophen-3-yl]oxy}piperidin-3-yl]carbonyl}-4,5,6,7-tetrahydrothieno[2,3-c]pyridine-5-carboxylic acid] | 101 to 20000
CCC[C@H]1N(C(=O)c2ncccc2C(F)(F)F)CCC[C@@]1(Oc1csc(C(F)(F)F)c1)C(=O)N1CCc2cc(F)ccc2C1CCC(=O)NCc1nn[nH]n1 (stereo partly drawn) [Compound A59, 3-(6-fluoro-2-{[(2R,3S)-2-propyl-1-{[3-(trifluoromethyl)pyridin-2-yl]carbonyl}-3-{[5-(trifluoromethyl)thiophen-3-yl]oxy}piperidin-3-yl]carbonyl}-1,2,3,4-tetrahydroisoquinolin-1-yl)-N-(2H-tetrazol-5-ylmethyl)propanamide] | 1 to 100
